Experimental data from patent US20250129032A1 (Nerio Therapeutics, Inc., priority 2022, published 2025).

Columns and labels:
[1] = target: untagged, full-length human PTPN2 (TC45) (1-387) protein (Homo sapiens (Human), UniProt P17706); experiment: Enzymatic assay used to determine potency of PTPN2 inhibitors (DiFMUP substrate); type: biochemical; conditions: 0.5 nM PTPN2, 100 μM DiFMUP, 30 min at room temperature
From the text: Compounds were subsequently added using a Tecan D300e dispenser. […] A four-parameter curve fit was used to determine IC50 values from % inhibition data.

[2] = tested on: murine B16F10 melanoma cell line; experiment: B16F10 IFNγ-induced cellular growth inhibition assay (xCELLigence RTCA); type: cell-based; conditions: Mus musculus, B16-F10, 48 h; read-out: B16 IFNγ Mediated Growth Inhibition Assay: AVG IC50
Description: Example B: B16F10 Cellular Growth Inhibition Assay Compound activity was determined using an interferon gamma (IFNγ)-induced cellular growth inhibition assay with the murine B16F10 melanoma cell line on an Agilent xCELLigence Real-Time Cell Analysis platform (RTCA). RTCA E-Plate View 96 plates (Agilent, 300601010) were pre-equilibrated with 50 μL of assay media (DMEM+10% FBS, Gibco 10566-024, Gibco 10082-147) at 37° C. in a humidified incubator before taking an initial measurement of impedance (sweep). B16F10 cells cultured in assay media were dissociated with TrypLE Express (Gibco 12605-010) for five minutes at 37° C., diluted in 3 volumes of assay buffer, centrifuged for 5 minutes at 500×g at room temperature before diluting cells to 7,700 cells/mL in assay media, plating 130 μL/well (1,000 cells/well) in the inner 60 wells of the assay plate, and adding 150 μL of assay media to the outer wells of the plate. Cells were incubated at room temperature for 20 min to allow cells to settle before placing them in the xCELLigence reader and incubating overnight at 37° C., sweeping wells every 15 minutes. After 24 hours, well readings were paused, plates were removed from the incubator and compounds were added using a Tecan D300e dispenser. All wells were normalized to a final concentration of 0.5% DMSO. Following a 30 min incubation at 37° C., recombinant mouse IFNγ (R&D Systems™ 485MI100) was diluted to 10 ng/mL in assay media and 20 μL was added to assay wells (1 ng/mL final concentration). Assay plates were placed in the xCELLigence reader and swept every 15 minutes. After 48 hours, well readings were normalized to the time point immediately preceding compound addition and the area under the growth curve (AUC) was calculated by the RTCA software and exported.

Sequence of untagged, full-length human PTPN2 (TC45) (1-387) protein (P17706 other isoform, or with tags, fused parts or gaps): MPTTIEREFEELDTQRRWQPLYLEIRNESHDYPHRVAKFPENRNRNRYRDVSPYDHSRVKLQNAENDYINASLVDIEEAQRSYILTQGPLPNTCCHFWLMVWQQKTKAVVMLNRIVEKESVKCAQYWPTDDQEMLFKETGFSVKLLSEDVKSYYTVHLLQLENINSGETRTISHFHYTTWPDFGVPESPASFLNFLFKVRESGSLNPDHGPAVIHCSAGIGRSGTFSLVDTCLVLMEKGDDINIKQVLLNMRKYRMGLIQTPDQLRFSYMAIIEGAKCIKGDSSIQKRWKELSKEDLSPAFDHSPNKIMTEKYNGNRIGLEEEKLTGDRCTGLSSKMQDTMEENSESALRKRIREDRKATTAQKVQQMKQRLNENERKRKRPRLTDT

| IC50 [2] | Compound | IC50 [1] |
| --- | --- | --- |
| – | NCC[C@@H]1CCc2cc(O)c(N3CC(=O)NS3(=O)=O)c(F)c2CC1 (single isomer, unassigned) [Example 1] | 5.07 nM |
| – | NCC[C@H]1CCc2cc(O)c(N3CC(=O)NS3(=O)=O)c(F)c2CC1 (single isomer, unassigned) [Example 2] | 176 nM |
| 1.63 µM | N[C@H]1CCc2cc(O)c(N3CC(=O)NS3(=O)=O)c(F)c2CC1 (single isomer, unassigned) [Example 6] | 5.67 nM |
| > 100 µM | N[C@@H]1CCc2cc(O)c(N3CC(=O)NS3(=O)=O)c(F)c2CC1 (single isomer, unassigned) [Example 7] | 444 nM |
| 6.63 µM | O=C1CN(c2c(O)cc3c(c2F)CC[C@@H](NCCC2CCCC2)CC3)S(=O)(=O)N1 (single isomer, unassigned) [Example 10] | 5 nM |
| > 100 µM | O=C1CN(c2c(O)cc3c(c2F)CC[C@H](NCCC2CCCC2)CC3)S(=O)(=O)N1 (single isomer, unassigned) [Example 11] | 149 nM |
| 15.2 µM | O=C1CN(c2c(O)cc3c(c2F)CC[C@@H](N2CCCC2)CC3)S(=O)(=O)N1 (single isomer, unassigned) [Example 14] | 13.6 nM |
| 16.8 µM | O=C1CN(c2c(O)cc3c(c2F)CC[C@H](N2CCCC2)CC3)S(=O)(=O)N1 (single isomer, unassigned) [Example 15] | 79.5 nM |
| 6.66 µM | O=C1CN(c2c(O)cc3c(c2F)CC[C@@H](N2CCC4(CCC4)C2)CC3)S(=O)(=O)N1 (single isomer, unassigned) [Example 16] | 10.7 nM |
| 13.5 µM | O=C1CN(c2c(O)cc3c(c2F)CC[C@H](N2CCC4(CCC4)C2)CC3)S(=O)(=O)N1 (single isomer, unassigned) [Example 17] | 93 nM |
| > 100 µM | CN(C)[C@H]1CCc2cc(O)c(N3CC(=O)NS3(=O)=O)c(F)c2CC1 (single isomer, unassigned) [Example 18] | 879 nM |
| 2.69 µM | CN(C)[C@@H]1CCc2cc(O)c(N3CC(=O)NS3(=O)=O)c(F)c2CC1 (single isomer, unassigned) [Example 19] | 12.4 nM |
| 4.13 µM | CCN[C@H]1CCc2cc(O)c(N3CC(=O)NS3(=O)=O)c(F)c2CC1 (single isomer, unassigned) [Example 20] | 12.7 nM |
| 54 µM | CCN[C@@H]1CCc2cc(O)c(N3CC(=O)NS3(=O)=O)c(F)c2CC1 (single isomer, unassigned) [Example 21] | 374 nM |
| 2.16 µM | CNC[C@H]1CCc2cc(O)c(N3CC(=O)NS3(=O)=O)c(F)c2CC1 (single isomer, unassigned) [Example 23] | 2 nM |
| – | CNC[C@@H]1CCc2cc(O)c(N3CC(=O)NS3(=O)=O)c(F)c2CC1 (single isomer, unassigned) [Example 24] | 75 nM |

| IC50 [2] | Compound | IC50 [1] |
| --- | --- | --- |
| 5.02 µM | CC(C)CCN[C@H]1CCCc2cc(O)c(N3CC(=O)NS3(=O)=O)c(F)c2C1 (single isomer, unassigned) [Example 26] | 19.8 nM |
| > 71.1 µM | CC(C)CCN[C@@H]1CCCc2cc(O)c(N3CC(=O)NS3(=O)=O)c(F)c2C1 (single isomer, unassigned) [Example 27] | 215 nM |
| 5.14 µM | CNC1CCc2cc(O)c(N3CC(=O)NS3(=O)=O)c(F)c2CC1 (stereo not shown) [Example 3] | 16.5 nM |
| 2.89 µM | CN(C)C1CCc2cc(O)c(N3CC(=O)NS3(=O)=O)c(F)c2CC1 (stereo not shown) [Example 4] | 14.9 nM |
| 2.49 µM | CCNC1CCc2cc(O)c(N3CC(=O)NS3(=O)=O)c(F)c2CC1 (stereo not shown) [Example 5] | 17.5 nM |
| 1.59 µM | O=C1CN(c2c(O)cc3c(c2F)CCC(O)CC3)S(=O)(=O)N1 (stereo not shown) [Example 8] | 47.3 nM |
| 4.15 µM | O=C1CN(c2c(O)cc3c(c2F)CCC(N2CCCC2)CC3)S(=O)(=O)N1 (stereo not shown) [Example 9] | 21.6 nM |
| 4.06 µM | O=C1CN(c2c(O)cc3c(c2F)CCC(NC2CCCC2)CC3)S(=O)(=O)N1 (stereo not shown) [Example 12] | 19.8 nM |
| > 100 µM | CC(C)(C)NC1CCc2cc(O)c(N3CC(=O)NS3(=O)=O)c(F)c2CC1 (stereo not shown) [Example 13] | 85.3 nM |
| – | CC(C)CCNC1CCc2cc(O)c(N3CC(=O)NS3(=O)=O)c(F)c2CC1 (stereo not shown) [Example 22] | 24.5 nM |
| 7.08 µM | CC(C)CCNC1CCCc2cc(O)c(N3CC(=O)NS3(=O)=O)c(F)c2C1 (stereo not shown) [Example 25, 5-(1-fluoro-3-hydroxy-8-(isopentylamino)-6,7,8,9-tetrahydro-5H-benzo[7]annulen-2-yl)-1,2,5-thiadiazolidin-3-one 1,1-dioxide] | 25.9 nM |
| > 61.2 µM | CC(C)CCN(C)C1CCCc2cc(O)c(N3CC(=O)NS3(=O)=O)c(F)c2C1 (stereo not shown) [Example 28, 5-(1-fluoro-3-hydroxy-8-(isopentyl(methyl)amino)-6,7,8,9-tetrahydro-5H-benzo[7]annulen-2-yl)-1,2,5-thiadiazolidin-3-one 1,1-dioxide] | 39.9 nM |
| 13.6 µM | O=C1CN(c2c(O)cc3c(c2F)CCCCC3)S(=O)(=O)N1 [Example 29, 5-(1-fluoro-3-hydroxy-6,7,8,9-tetrahydro-5H-benzo[7]annulen-2-yl)-1,2,5-thiadiazolidin-3-one 1,1-dioxide] | 109 nM |
| 1.73 µM | CC(C)CCCN1CCc2cc(O)c(N3CC(=O)NS3(=O)=O)c(F)c2CC1 [Example 31, 5-(6-fluoro-8-hydroxy-3-(4-methylpentyl)-2,3,4,5-tetrahydro-1H-benzo[d]azepin-7-yl)-1,2,5-thiadiazolidin-3-one 1,1-dioxide] | 1.06 nM |
| 14.9 µM | N#CCC1CCc2cc(O)c(N3CC(=O)NS3(=O)=O)c(F)c2CC1 (stereo not shown) [Example 32] | 46.9 nM |
| – | CN(C)CCC1CCc2cc(O)c(N3CC(=O)NS3(=O)=O)c(F)c2CC1 (stereo not shown) [Example 33] | 21.1 nM |

| Compound | IC50 [2] | IC50 [1] |
| --- | --- | --- |
| O=C1CN(c2c(O)cc3c(c2F)CCNCC3)S(=O)(=O)N1 [Example 30, 5-(6-fluoro-8-hydroxy-2,3,4,5-tetrahydro-1H-benzo[d]azepin-7-yl)-1,2,5-thiadiazolidin-3-one 1,1-dioxide] | 0.996 µM | 2.28 nM |
